Reference: ChEMBL document CHEMBL1201862, “PubChem BioAssay data set” (2004)
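Step 1: Grow cells in 96-well plates. Step 2: Expose to compound for 48 hours at 5 concentrations. Step 3: Interpolate endpoints linearly; if unreached, use highest concentration. At the GI50, growth is halved.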 The source made the active and inactive calls. Rule as the data show it: active = GI50 up to about 1.1 µM and inactive = higher.

Tests used:
Test in all cases: DTP human tumour cell line panel, 48 h
[1] = tested on: M14
[2] = tested on: NCI-H522
[3] = tested on: SK-MEL-5
[4] = tested on: MDA-MB-231
[5] = tested on: NCI/ADR-RES
[6] = tested on: ACHN
[7] = tested on: NCI-H23
[8] = tested on: OVCAR-5
[9] = tested on: CCRF-CEM
[10] = tested on: SF-295
[11] = tested on: MDA-N
[12] = tested on: SR
[13] = tested on: UACC-257
[14] = tested on: HL-60
[15] = tested on: OVCAR-3
[16] = tested on: SW-620
[17] = tested on: RPMI-8226
[18] = tested on: SNB-75
[19] = tested on: HOP-92
[20] = tested on: Malme-3M

Measured: GI50

COc1ccc(C2C=C(c3ccccc3)Nc3nnnn32)cc1 (configuration not stated)
inactive: [1] 68.2 µM | [2] 17.9 µM | [3] 34.4 µM | [4] 26.6 µM | [5] > 100 µM | [6] 24.1 µM | [7] > 100 µM | [8] 37.7 µM | [9] > 100 µM | [10] 31 µM | [11] 45.1 µM | [12] 26.4 µM | [13] 98.4 µM | [14] > 100 µM | [15] 24.9 µM | [16] 37.3 µM | [17] 51.9 µM

ON(CCc1ccccn1)Cc1ccccc1
inactive: [1] > 100 µM | [2] > 100 µM | [18] > 100 µM | [3] > 100 µM | [4] > 100 µM | [5] > 100 µM | [6] > 100 µM | [7] > 100 µM | [8] > 100 µM | [10] > 100 µM | [11] > 100 µM | [12] > 100 µM | [13] > 100 µM | [19] > 100 µM | [15] > 100 µM | [20] > 100 µM | [16] > 100 µM | [17] > 100 µM

O=C(O)c1cccc(C(=O)O)c1[S+]([O-])Cc1ccccc1 (configuration not stated)
inactive: [1] > 100 µM | [2] > 100 µM | [18] > 100 µM | [3] > 100 µM | [4] > 100 µM | [5] > 100 µM | [6] > 100 µM | [7] > 100 µM | [8] > 100 µM | [10] > 100 µM | [11] > 100 µM | [12] > 100 µM | [13] > 100 µM | [14] > 100 µM | [19] > 100 µM | [15] > 100 µM | [20] > 100 µM | [16] > 100 µM | [17] > 100 µM

O=P(c1ccccc1)(c1ccccc1)C(NCc1ccccc1)c1ccc(F)cc1 (configuration not stated)
inactive: [1] 14.7 µM | [2] 11.5 µM | [18] 23.8 µM | [3] 15.9 µM | [4] 11.1 µM | [5] 14 µM | [6] 13.8 µM | [7] 13.6 µM | [9] 16.9 µM | [10] 15.2 µM | [11] 17.1 µM | [12] 15 µM | [13] 18 µM | [14] 17.5 µM | [19] 12.9 µM | [15] 14.2 µM | [20] 17.9 µM | [16] 18.5 µM | [17] 25.9 µM

CCC1(CC)C(=O)N(C(=O)c2ccc(Cl)cc2)N(C(=O)c2ccccc2Cl)C1=O
inactive: [1] > 100 µM | [2] 14.4 µM | [18] 16.1 µM | [3] 75 µM | [4] 50.5 µM | [5] 28.3 µM | [6] 36.1 µM | [7] 32.1 µM | [8] > 100 µM | [9] 40.8 µM | [10] 63.5 µM | [11] 39.7 µM | [12] 34.9 µM | [13] > 100 µM | [14] 37.7 µM | [15] 27.1 µM | [20] 35.7 µM | [16] 29.4 µM | [17] 25.8 µM

O=C(O[C@H](/C=C/c1ccccc1)P1(=O)N(Cc2ccccc2)[C@H]2CCCC[C@@H]2N1Cc1ccccc1)c1ccccc1
inactive: [1] 4.5 µM | [2] 3.48 µM | [3] 1.87 µM | [4] 3.49 µM | [5] 3.05 µM | [6] 4.56 µM | [7] 3.51 µM | [8] 4.94 µM | [9] 3.48 µM | [10] 3.74 µM | [11] 3.52 µM | [12] 3.35 µM | [13] 9.84 µM | [14] 2.95 µM | [19] 1.99 µM | [15] 3.94 µM | [20] 2.89 µM | [16] 3.72 µM | [17] 3.42 µM

COc1ccc(CNc2nc3cc(C(F)(F)F)ccc3nc2C(=O)O)cc1
inactive: [1] 22.4 µM | [18] 38 µM | [3] 12.3 µM | [4] 26.9 µM | [5] 24.3 µM | [6] 29.4 µM | [7] 24.5 µM | [8] 28.4 µM | [9] 27.1 µM | [10] 32 µM | [11] 27.7 µM | [12] 24.5 µM | [13] 24.8 µM | [19] 20.3 µM | [15] 15.3 µM | [16] 31.1 µM | [17] 39.3 µM

O=C(c1ccccc1)c1c(-c2ccccc2)[nH]n(-c2ccc([N+](=O)[O-])cc2)c(=O)c1=O
active: [7] 0.2 µM
inactive: [1] > 100 µM | [2] 23.4 µM | [3] > 100 µM | [4] 30.1 µM | [5] 49.5 µM | [6] 99.1 µM | [8] > 100 µM | [9] 47 µM | [10] 46.8 µM | [11] > 100 µM | [12] 35.5 µM | [13] 41.5 µM | [14] > 100 µM | [19] 16.8 µM | [15] 56.2 µM | [20] > 100 µM | [16] 42.6 µM | [17] 43.9 µM
